According to patent US12559492B2, “BRAF degraders” (C4 Therapeutics, Inc., priority 2020, dated 2026):

Target: BRAF^V600E protein (Homo sapiens, UniProt P15056, V600E)
Experiment: HiBiT cellular BRAF V600E degradation assay
Format: cell-based
Conditions: 24 h incubation; for DC50: A375.10 cells (HiBiT tag knocked in at N-terminal of BRAF V600E), concentration at which 50% of total cellular BRAF V600E is degraded; for Emax: read-out: HiBit 24 h Emax
[1] = A375.10 cells, Emax = amount of residual protein remaining in the cell after compound treatment

BRAF^V600E protein, sequence (P15056 whole entry V600E): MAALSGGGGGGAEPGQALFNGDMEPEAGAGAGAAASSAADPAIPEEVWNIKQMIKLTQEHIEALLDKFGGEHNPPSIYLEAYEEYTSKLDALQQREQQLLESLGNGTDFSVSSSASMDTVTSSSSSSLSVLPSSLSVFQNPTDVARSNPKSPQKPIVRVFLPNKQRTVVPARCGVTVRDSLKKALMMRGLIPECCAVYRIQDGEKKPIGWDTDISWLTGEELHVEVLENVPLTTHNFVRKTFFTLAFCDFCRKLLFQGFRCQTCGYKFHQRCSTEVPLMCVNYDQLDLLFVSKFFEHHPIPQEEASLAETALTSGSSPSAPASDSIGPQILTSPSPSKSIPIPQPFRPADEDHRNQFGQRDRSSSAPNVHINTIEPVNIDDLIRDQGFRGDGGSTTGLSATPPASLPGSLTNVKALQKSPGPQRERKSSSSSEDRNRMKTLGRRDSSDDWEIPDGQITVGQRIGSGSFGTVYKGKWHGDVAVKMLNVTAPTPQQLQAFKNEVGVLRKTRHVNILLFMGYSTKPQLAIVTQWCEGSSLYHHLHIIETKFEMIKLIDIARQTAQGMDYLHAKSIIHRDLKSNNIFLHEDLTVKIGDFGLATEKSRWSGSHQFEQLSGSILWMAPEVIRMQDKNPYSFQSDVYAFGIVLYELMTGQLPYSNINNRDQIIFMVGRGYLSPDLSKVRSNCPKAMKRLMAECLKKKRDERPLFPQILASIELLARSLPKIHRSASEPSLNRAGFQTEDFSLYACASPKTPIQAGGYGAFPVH

SMILES | DC50 [nM] | Emax [1] [%] | HiBit 24 h Emax [1] [%]
CCN(C)S(=O)(=O)Nc1ccc(F)c(C(=O)c2c[nH]c3ncc(-c4ccc(N5CCN(C(=O)CCCN6CCC(c7ccc(OC8CCC(=O)NC8=O)cc7)CC6)CC5)cc4)cc23)c1F (centres unmarked) [Example A15, 5-[4-[4-[4-[4-[4-(2,6-Dioxopiperidin-3-yl)oxyphenyl]piperidin-1-yl]butanoyl]piperazin-1-yl]phenyl]-3-[3-[[ethyl(methyl)sulfamoyl]amino]-2,6-difluorobenzoyl]-1H-pyrrolo[2,3-b]pyridine] | 24 | 14 | –
CCN(C)S(=O)(=O)Nc1ccc(F)c(C(=O)c2c[nH]c3ncc(-c4ccc(N5CCC(NC(=O)CN6CCC(c7ccc(OC8CCC(=O)NC8=O)cc7)CC6)CC5)nc4)cc23)c1F (centres unmarked) [Example A61, 2-[4-[4-(2,6-Dioxopiperidin-3-yl)oxyphenyl]piperidin-1-yl]-N-[1-[5-[3-[3-[[ethyl(methyl)sulfamoyl]amino]-2,6-difluorobenzoyl]-1H-pyrrolo[2,3-b]pyridin-5-yl]pyridin-2-yl]piperidin-4-yl]acetamide;formic acid] | 40 | 16 | –
CCN(C)S(=O)(=O)Nc1cccc(C(=O)c2c[nH]c3ncc(-c4ccc(N5CCN(C(=O)CC6(O)CCN(c7ccc(N8CCC(=O)NC8=O)cc7F)CC6)CC5)nc4)cc23)c1F [Example 164, 5-[6-[4-[2-[1-[4-(2,4-dioxohexahydropyrimidin-1-yl)-2-fluoro-phenyl]-4-hydroxy-4-piperidyl]acetyl]piperazin-1-yl]-3-pyridyl]-3-[3-[[ethyl(methyl)sulfamoyl]amino]-2-fluoro-benzoyl]-1H-pyrrolo[2,3-b]pyridine] | 2.31 | 10.2 | –
CCN(C)S(=O)(=O)Nc1ccc(F)c(C(=O)c2c[nH]c3ncc(-c4ccc(N5CCN(C(=O)CC6(O)CCN(c7ccc(C8CCC(=O)NC8=O)cc7F)CC6)CC5)nc4)cc23)c1F (centres unmarked) [Example 160, 5-[6-[4-[2-[1-[4-(2,6-dioxo-3-piperidyl)-2-fluoro-phenyl]-4-hydroxy-4-piperidyl]acetyl]piperazin-1-yl]-3-pyridyl]-3-[3-[[ethyl(methyl)sulfamoyl]amino]-2,6-difluoro-benzoyl]-1H-pyrrolo[2,3-b]pyridine] | 3.12 | 6.7 | –
CCN(C)S(=O)(=O)Nc1ccc(F)c(C(=O)c2c[nH]c3ncc(-c4cnc(N5CCN(C(=O)CN6CCC(c7ccc(CN8CCC(=O)NC8=O)cc7)CC6)CC5)nc4)cc23)c1F [Example 32, 5-[2-[4-[2-[4-[4-[(2,4-dioxohexahydropyrimidin-1-yl)methyl]phenyl]-1-piperidyl]acetyl]piperazin-1-yl]pyrimidin-5-yl]-3-[3-[[ethyl(methyl)sulfamoyl]amino]-2,6-difluoro-benzoyl]-1H-pyrrolo[2,3-b]pyridine] | 35 | 10.6 | –
CCN(C)S(=O)(=O)Nc1ccc(F)c(C(=O)c2c[nH]c3ncc(-c4cnc(N5CCN(C(=O)CN6CCC(c7ccc8c(N9CCC(=O)NC9=O)nn(C)c8c7)CC6)CC5)nc4)cc23)c1F [Example 34, 3-(2,4-dioxohexahydropyrimidin-1-yl)-6-[1-[2-[4-[5-[3-[3-[[ethyl(methyl)sulfamoyl]amino]-2,6-difluoro-benzoyl]-1H-pyrrolo[2,3-b]pyridin-5-yl]pyrimidin-2-yl]piperazin-1-yl]-2-oxo-ethyl]-4-piperidyl]-1-methyl-indazole] | 2.52 | 8.14 | –
CCN(C)S(=O)(=O)Nc1ccc(F)c(C(=O)c2c[nH]c3ncc(-c4cc(F)c(N5CCN(C(=O)CC6(O)CCN(c7ccc(NC8CCC(=O)NC8=O)cc7F)CC6)CC5)c(F)c4)cc23)c1F (centres unmarked) [Example 195, 5-[4-[4-[2-[1-[4-[(2,6-dioxo-3-piperidyl)amino]-2-fluoro-phenyl]-4-hydroxy-4-piperidyl]acetyl]piperazin-1-yl]-3,5-difluoro-phenyl]-3-[3-[[ethyl(methyl)sulfamoyl]amino]-2,6-difluoro-benzoyl]-1H-pyrrolo[2,3-b]pyridine] | 6.23 | 7.6 | –
O=C1CCC(Nc2ccc(N3CCC(O)(CC(=O)N4CCN(c5ccc(-c6cnc7[nH]cc(C(=O)c8c(F)ccc(NS(=O)(=O)N9CC[C@@H](F)C9)c8F)c7c6)cn5)CC4)CC3)c(F)c2)C(=O)N1 (stereo partly drawn) [Example 190, (3R)—N-[3-[5-[6-[4-[2-[1-[4-[(2,6-dioxo-3-piperidyl)amino]-2-fluoro-phenyl]-4-hydroxy-4-piperidyl]acetyl]piperazin-1-yl]-3-pyridyl]-1H-pyrrolo[2,3-b]pyridine-3-carbonyl]-2,4-difluoro-phenyl]-3-fluoro-pyrrolidine-1-sulfonamide] | 2.72 | 7.07 | –
CCN(C)S(=O)(=O)Nc1ccc(F)c(C(=O)c2c[nH]c3ncc(-c4cnc(N5CCC(NC(=O)C6CCN(c7ccc(NC8CCC(=O)NC8=O)cc7F)CC6)CC5)nc4)cc23)c1F (centres unmarked) [Example 136, 1-[4-[(2,6-dioxo-3-piperidyl)amino]-2-fluoro-phenyl]-N-[1-[5-[3-[3-[[ethyl(methyl)sulfamoyl]amino]-2,6-difluoro-benzoyl]-1H-pyrrolo[2,3-b]pyridin-5-yl]pyrimidin-2-yl]-4-piperidyl]piperidine-4-carboxamide] | 3.26 | 7.37 | –
CCN(C)S(=O)(=O)Nc1ccc(F)c(C(=O)c2c[nH]c3ncc(-c4cnc(N5CCN(C(=O)CC6(O)CCN(c7ccc8c(N9CCC(=O)NC9=O)nn(C)c8c7)CC6)CC5)nc4)cc23)c1F [Example 163, 3-(2,4-dioxohexahydropyrimidin-1-yl)-6-[4-[2-[4-[5-[3-[3-[[ethyl(methyl)sulfamoyl]amino]-2,6-difluoro-benzoyl]-1H-pyrrolo[2,3-b]pyridin-5-yl]pyrimidin-2-yl]piperazin-1-yl]-2-oxo-ethyl]-4-hydroxy-1-piperidyl]-1-methyl-indazole] | 4.52 | 9.67 | –
CCCS(=O)(=O)Nc1ccc(F)c(C(=O)c2c[nH]c3ncc(-c4cnc(N5CCN(C(=O)CN6CCC(c7ccc(OC8CCC(=O)NC8=O)cc7)CC6)CC5)nc4)cc23)c1F (centres unmarked) [Example 2, N-[3-[5-[2-[4-[2-[4-[4-[(2,6-dioxo-3-piperidyl)oxy]phenyl]-1-piperidyl]acetyl]piperazin-1-yl]pyrimidin-5-yl]-1H-pyrrolo[2,3-b]pyridine-3-carbonyl]-2,4-difluoro-phenyl]propane-1-sulfonamide] | 12.2 | 7.81 | –
CCN(C)S(=O)(=O)Nc1ccc(F)c(C(=O)c2c[nH]c3ncc(-c4cnc(N5CCN(C(=O)CN6CCC(c7ccc(NC8CCC(=O)NC8=O)cc7)CC6)CC5)nc4)cc23)c1F (centres unmarked) [Example 18, 5-[2-[4-[2-[4-[4-[(2,6-dioxo-3-piperidyl)amino]phenyl]-1-piperidyl]acetyl]piperazin-1-yl]pyrimidin-5-yl]-3-[3-[[ethyl(methyl)sulfamoyl]amino]-2,6-difluoro-benzoyl]-1H-pyrrolo[2,3-b]pyridine] | 2.85 | – | 7.93
CCN(C)S(=O)(=O)Nc1ccc(F)c(C(=O)c2c[nH]c3ncc(-c4cnc(N5CCN(C(=O)CC6(O)CCN(c7ccc(NC8CCC(=O)NC8=O)cc7Cl)CC6)CC5)nc4)cc23)c1F (centres unmarked) [Example 157, 5-[2-[4-[2-[1-[2-chloro-4-[(2,6-dioxo-3-piperidyl)amino]phenyl]-4-hydroxy-4-piperidyl]acetyl]piperazin-1-yl]pyrimidin-5-yl]-3-[3-[[ethyl(methyl)sulfamoyl]amino]-2,6-difluoro-benzoyl]-1H-pyrrolo[2,3-b]pyridine] | 6.19 | 8.52 | –
